Source: patent US7396837B2, “Antitumoral analogs of lamellarins” (Pharma Mar, S.A.U., priority 2002, dated 2008)
Like-named read-outs stand apart in the source and are kept apart here.

Columns and labels:
Format in all cases: cell-based
DU-145 = assay: SRB colorimetric cell growth inhibition assay, DU-145; details: Homo sapiens; for GI50 / IC (TGI): DU-145, DU-145; for GI50: GI=growth inhibition, read-out: GI50 DU-145; for IC (TGI): TGI=total growth inhibition (cytostatic effect), read-out: TGI DU-145; for CC50: DU-145, read-out: LC50 DU-145, DU-145, LC=cell killing (cytotoxic effect)
How it was run: (§1)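 Sulforhodamine B colorimetric readout measured cell growth and viability after continuous compound exposure of human cancer cell lines in 96-well plates. Triplicate wells gave mean ± SD, from which growth inhibition (GI), cytostatic total growth inhibition (TGI) and cytotoxic cell killing (LC) were calculated.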

LoVo-Dox = assay: SRB colorimetric cell growth inhibition assay, LoVo-Dox (MDR)
How it was run: as §1

HeLa = assay: SRB colorimetric cell growth inhibition assay, HeLa; details: Homo sapiens, HeLa; for CC50: read-out: LC50 HELA, HELA, LC=cell killing (cytotoxic effect); for IC (TGI): read-out: TGI HELA; for GI50: GI=growth inhibition, read-out: GI50 HELA
How it was run: as §1

SK-BR-3 = assay: SRB colorimetric cell growth inhibition assay, SK-BR-3; details: Homo sapiens; for GI50 / IC (TGI): SK-BR-3, SK-BR-3; for GI50: GI=growth inhibition, read-out: GI50 SK-BR-3; for IC (TGI): TGI=total growth inhibition (cytostatic effect), read-out: TGI SK-BR-3; for CC50: SK-BR-3, read-out: LC50 SK-BR-3, SK-BR-3, LC=cell killing (cytotoxic effect)
How it was run: as §1

LNCaP = assay: SRB colorimetric cell growth inhibition assay, LNCaP; details: Homo sapiens, LNCaP; for GI50 / IC (TGI): LN-caP; for GI50: GI=growth inhibition, read-out: GI50 LN-caP; for IC (TGI): TGI=total growth inhibition (cytostatic effect), read-out: TGI LN-caP; for CC50: read-out: LC50 LN-caP, LN-caP, LC=cell killing (cytotoxic effect)
How it was run: as §1

HT-29 = assay: SRB colorimetric cell growth inhibition assay, HT-29; details: Homo sapiens; for GI50 / IC (TGI): HT-29, HT-29; for GI50: GI=growth inhibition, read-out: GI50 HT-29; for IC (TGI): TGI=total growth inhibition (cytostatic effect), read-out: TGI HT-29; for CC50: HT-29, read-out: LC50 HT-29, HT-29, LC=cell killing (cytotoxic effect)
How it was run: as §1

IGROV = assay: SRB colorimetric cell growth inhibition assay, IGROV; details: Homo sapiens, IGROV; for CC50: read-out: LC50 IGROV, IGROV, LC=cell killing (cytotoxic effect); for GI50: GI=growth inhibition, read-out: GI50 IGROV; for IC (TGI): TGI=total growth inhibition (cytostatic effect), read-out: TGI IGROV
How it was run: as §1

K-562 = assay: SRB colorimetric cell growth inhibition assay, K-562; details: Homo sapiens; for GI50 / IC (TGI): K562, K-562; for GI50: GI=growth inhibition, read-out: GI50 K-562; for IC (TGI): TGI=total growth inhibition (cytostatic effect), read-out: TGI K-562; for CC50: K562, read-out: LC50 K-562, K-562, LC=cell killing (cytotoxic effect)
How it was run: as §1

PANC-1 = assay: SRB colorimetric cell growth inhibition assay, PANC-1; details: Homo sapiens; for GI50 / IC (TGI): PANC-1, PANC-1; for GI50: GI=growth inhibition, read-out: GI50 PANC-1; for IC (TGI): TGI=total growth inhibition (cytostatic effect), read-out: TGI PANC-1; for CC50: PANC-1, read-out: LC50 PANC-1, PANC-1, LC=cell killing (cytotoxic effect)
How it was run: as §1

A-549 = assay: SRB colorimetric cell growth inhibition assay, A-549; details: Homo sapiens; for GI50 / IC (TGI): A549, A-549; for GI50: GI=growth inhibition, read-out: GI50 A-549; for IC (TGI): TGI=total growth inhibition (cytostatic effect), read-out: TGI A-549; for CC50: A549, read-out: LC50 A-549, A-549, LC=cell killing (cytotoxic effect)
How it was run: as §1

LoVo = assay: SRB colorimetric cell growth inhibition assay, LoVo; details: Homo sapiens, LoVo; for CC50: read-out: LC50 LOVO, LOVO, LC=cell killing (cytotoxic effect); for GI50: GI=growth inhibition, read-out: GI50 LOVO; for IC (TGI): TGI=total growth inhibition (cytostatic effect), read-out: TGI LOVO
How it was run: as §1

IGROV-ET = assay: SRB colorimetric cell growth inhibition assay, IGROV-ET (ET-743 resistant); details: Homo sapiens; for GI50 / IC (TGI): IGROV-ET; for GI50: GI=growth inhibition, read-out: GI50 IGROV-ET; for IC (TGI): TGI=total growth inhibition (cytostatic effect), read-out: TGI IGROV-ET; for CC50: read-out: LC50 IGROV-ET, IGROV-ET, LC=cell killing (cytotoxic effect)
How it was run: as §1

SK-MEL-28 = assay: SRB colorimetric cell growth inhibition assay, SK-MEL-28; details: Homo sapiens; for GI50 / IC (TGI): SK-MEL-28, MEL-28; for GI50: GI=growth inhibition, read-out: GI50 MEL-28; for IC (TGI): TGI=total growth inhibition (cytostatic effect), read-out: TGI MEL-28; for CC50: SK-MEL-28, read-out: LC50 MEL-28, MEL-28, LC=cell killing (cytotoxic effect)
How it was run: as §1

HeLa-APL = assay: SRB colorimetric cell growth inhibition assay, HeLa-APL (aplidine resistant); details: Homo sapiens; for GI50: read-out: GI50 HELA-APL; for CC50: read-out: LC50 HELA-APL, HELA-APL, LC=cell killing (cytotoxic effect); for IC (TGI): read-out: TGI HELA-APL
How it was run: as §1

[1] = Homo sapiens, LOVO-DOX; GI=growth inhibition; read-out: GI50 LOVO-DOX
[2] = Homo sapiens, read-out: LC50 LOVO-DOX, LOVO-DOX; LC=cell killing (cytotoxic effect)

COc1cc(-c2c3n(c4c(=O)oc5cc(OC(=O)[C@@H](N)CO)c(OC)cc5c24)CCc2c-3cc(OC)c(OC)c2OC(=O)[C@@H](N)CO)ccc1OC(=O)[C@@H](N)CO [Compound 59]
GI50 (DU-145): 1.39 µM | IC (TGI) (DU-145): 2.6 µM | CC50 (DU-145): 4.86 µM | GI50 (LoVo-Dox; [1]): 0.528 µM | IC (TGI) (LoVo-Dox; Homo sapiens, LOVO-DOX; TGI=total growth inhibition (cytostatic effect); read-out: TGI LOVO-DOX): 1.6 µM | CC50 (LoVo-Dox; [2]): 4.56 µM | CC50 (HeLa): 6.44 µM | IC (TGI) (HeLa): 2.98 µM | GI50 (HeLa): 1.37 µM | GI50 (SK-BR-3): 0.372 µM | IC (TGI) (SK-BR-3): 1.15 µM | CC50 (SK-BR-3): 4.11 µM | GI50 (LNCaP): 1.37 µM | IC (TGI) (LNCaP): 2.63 µM | CC50 (LNCaP): 5.06 µM | GI50 (HT-29): 1.97 µM | IC (TGI) (HT-29): 3.7 µM | CC50 (HT-29): 6.98 µM | CC50 (IGROV): 7.67 µM | GI50 (IGROV): 0.899 µM | IC (TGI) (IGROV): 2.63 µM | GI50 (K-562): 1.64 µM | IC (TGI) (K-562): 3.45 µM | CC50 (K-562): 7.27 µM | GI50 (PANC-1): 1.1 µM | IC (TGI) (PANC-1): 3.48 µM | CC50 (PANC-1): 8.81 µM | GI50 (A-549): 1.7 µM | IC (TGI) (A-549): 3.29 µM | CC50 (A-549): 6.36 µM | CC50 (LoVo): 5.67 µM | GI50 (LoVo): 1.13 µM | IC (TGI) (LoVo): 2.53 µM | GI50 (IGROV-ET): 0.632 µM | IC (TGI) (IGROV-ET): 2.04 µM | CC50 (IGROV-ET): 5.98 µM | GI50 (SK-MEL-28): 1.62 µM | IC (TGI) (SK-MEL-28): 3.04 µM | CC50 (SK-MEL-28): 5.67 µM | GI50 (HeLa-APL): 1.88 µM | CC50 (HeLa-APL): 8.12 µM | IC (TGI) (HeLa-APL): 3.9 µM

COc1cc(-c2c3n(c4c(=O)oc5cc(OC(=O)[C@H](CO)NC(=O)OC(C)(C)C)c(OC)cc5c24)CCc2c-3cc(OC)c(OC)c2OC(=O)[C@H](CO)NC(=O)OC(C)(C)C)ccc1OC(=O)[C@H](CO)NC(=O)OC(C)(C)C [Compound 60]
GI50 (DU-145): 1.18 µM | IC (TGI) (DU-145): 2.65 µM | CC50 (DU-145): 5.97 µM | GI50 (LoVo-Dox; [1]): 2.82 µM | CC50 (LoVo-Dox; [2]): 9.15 µM | IC (TGI) (LoVo-Dox; Homo sapiens; LOVO-DOX; TGI=total growth inhibition (cytostatic effect); read-out: TGI LOVO-DOX): 9.15 µM | CC50 (HeLa): 6.13 µM | IC (TGI) (HeLa): 2.51 µM | GI50 (HeLa): 1.02 µM | GI50 (SK-BR-3): 0.491 µM | IC (TGI) (SK-BR-3): 1.64 µM | CC50 (SK-BR-3): 8.58 µM | GI50 (LNCaP): 0.55 µM | IC (TGI) (LNCaP): 1.79 µM | CC50 (LNCaP): 5.25 µM | GI50 (HT-29): 2.42 µM | IC (TGI) (HT-29): 5.88 µM | CC50 (HT-29): 9.15 µM | CC50 (IGROV): 9.15 µM | GI50 (IGROV): 0.682 µM | IC (TGI) (IGROV): 3.29 µM | GI50 (K-562): 0.697 µM | IC (TGI) (K-562): 2.19 µM | CC50 (K-562): 6.87 µM | GI50 (PANC-1): 0.747 µM | IC (TGI) (PANC-1): 4.4 µM | CC50 (PANC-1): 9.15 µM | GI50 (A-549): 1.62 µM | IC (TGI) (A-549): 4.63 µM | CC50 (A-549): 9.15 µM | CC50 (LoVo): 7.94 µM | GI50 (LoVo): 1.61 µM | IC (TGI) (LoVo): 3.58 µM | GI50 (IGROV-ET): 2.56 µM | IC (TGI) (IGROV-ET): 6.16 µM | CC50 (IGROV-ET): 9.15 µM | GI50 (SK-MEL-28): 1.17 µM | IC (TGI) (SK-MEL-28): 4.14 µM | CC50 (SK-MEL-28): 9.15 µM | GI50 (HeLa-APL): 3.49 µM | CC50 (HeLa-APL): 9.15 µM | IC (TGI) (HeLa-APL): 9.15 µM
